Measured values as given in patent publication US11505548B2, “Heterocyclic compounds and their use for treatment of helminthic infections and diseases” (Celgene Corporation, priority 2019, dated 2022).
Read-outs that look alike come from different tables or passages of the source.

Tested on: Onchocerca gutturosa Adult Male Worms
Assay: Onchocerciasis in vitro screening model, worm motility score
Type: cell-based
Conditions: read-out: O. gutturosa activity level (IC50 or MED)
[1] = in vitro, Onchocerca gutturosa adult male worms, class A/B/C
[2] = Onchocerca gutturosa, Table 1 O. gutturosa, levels A/B/C, motility or MTT readout not specified

IC50 [1]	IC50 [2]	SMILES
< 200 nM		CC(=O)N(C)c1nccnc1Nc1nc(-c2cc3c(cn2)N(C(C)C)CC3)ns1 [Compound 309, N-(3-(3-(1-isopropyl-2,3-dihydro-1H-pyrrolo[2,3-c]pyridin-5-yl)-1,2,4-thiadiazol-5-ylamino)pyrazin-2-yl)-N-methylacetamide]
	< 200 nM	CC(C)c1cccnc1Nc1nc(-c2cc(C(F)(F)F)c(OC3CC3)cn2)ns1 [Compound 109, 3-(5-cyclopropoxy-4-(trifluoromethyl)pyridin-2-yl)-N-(3-isopropyl-pyridin-2-yl)-1,2,4-thiadiazol-5-amine]
	200 to 500 nM	CC(=O)N1CCN(c2ccc(Nc3nc(-c4ccc(OC5CC5)cn4)ns3)nc2)CC1 [Compound 112, 1-(4-(6-(3-(5-cyclopropoxy-pyridin-2-yl)-1,2,4-thiadiazol-5-ylamino)pyridin-3-yl)piperazin-1-yl) ethanone]
	< 200 nM	FC(F)(F)c1ccnc(Nc2nc(-c3ccccn3)no2)c1 [Compound 28, 3-(pyridin-2-yl)-N-(4-(trifluoro-methyl)pyridin-2-yl)-1,2,4-o xadiazol-5-amine]
	500 to 5000 nM	c1ccc(-c2nsc(Nc3ccc(N4CCNCC4)cn3)n2)nc1 [Cmpd 4, N-(5-(piperazin-1-yl)pyridin-2-yl)-3-(pyridin-2-yl)-1,2,4-thiadiazol-5-amine]
	500 to 5000 nM	Cc1cccnc1Nc1nnc(-c2ccc(OC3CCN(C)CC3)cn2)s1 [Compound 63, 5-(5-(1-methyl-piperidin-4-yloxy)pyridin-2-yl)-N-(3-methylpyridin-2-yl)-1,3,4-thiadiazol-2-amine]
	200 to 500 nM	COc1ccnc(-c2nnc(Nc3ccc(C(F)(F)F)cn3)s2)c1 [Compound 174, 5-(4-methoxy-pyridin-2-yl)-N-(5-(trifluoromethyl)pyridin-2-yl)-1,3,4-thiadiazol-2-amine]
500 to 5000 nM		c1ccc(-c2ccnc(Nc3nnc(-c4ccccn4)o3)c2)cc1 [Compound 235, N-(4-phenyl-pyridin-2-yl)-5-(pyridin-2-yl)-1,3,4-oxadiazol-2-amine]
500 to 5000 nM		CC(=O)N(C)c1cc(C(F)(F)F)cnc1Nc1nc(-c2ccc(OC3COC3)cn2)ns1 [Compound 329, N-methyl-N-(2-(3-(5-(oxetan-3-yloxy)pyridin-2-yl)-1,2,4-thiadiazol-5-ylamino)-5-(trifluoromethyl)pyridin-3-yl)acetamide]
	500 to 5000 nM	Cc1cccnc1Nc1nc(-c2ccc(S(=O)(=O)N(C)C)cn2)ns1 [Compound 31, N,N-dimethyl-6-(5-(3-methylpyridin-2-ylamino)-1,2,4-thiadiazol-3-yl)pyridine-3-sulfonamide]
500 to 5000 nM		CC(=O)N(C)c1cccnc1Nc1nc(-c2ccc(OC3COC3)cn2)ns1 [Compound 326, N-methyl-N-(2-(3-(5-(oxetan-3-yloxy)pyridin-2-yl)-1,2,4-thiadiazol-5-ylamino)pyridin-3-yl)acetamide]
	200 to 500 nM	Cc1cccnc1Nc1nc(-c2ccc(S(=O)(=O)C3CCN(C)CC3)cn2)ns1 [Compound 100, 3-(5-(1-methylpiperidin-4-ylsulfonyl)pyridin-2-yl)-N-(3-methylpyridin-2-yl)-1,2,4-thiadiazol-5-amine]
	< 200 nM	COc1cccnc1Nc1nc(-c2ccc(OCC(F)(F)F)cn2)ns1 [Compound 105, N-(3-methoxy-pyridin-2-yl)-3-(5-(2,2,2-trifluoroethoxy)pyridin-2-yl)-1,2,4-thiadiazol-5-amine]
	500 to 5000 nM	CC(C)Oc1ccc(-c2nnc(Nc3ccc(C(C)C)cn3)s2)nc1 [Compound 181, 5-(5-isopropoxy-pyridin-2-yl)-N-(5-isopropyl-pyridin-2-yl)-1,3,4-thiadiazol-2-amine]
	500 to 5000 nM	CN(C)c1cccnc1Nc1nc(-c2ccc(S(=O)(=O)C3CCN(C4CC4)CC3)cn2)ns1 [Compound 145, N2-(3-(5-(1-cyclopropyl-piperidin-4-ylsulfonyl)pyridin-2-yl)-1,2,4-thiadiazol-5-yl)-N3,N3-dimethyl-pyridine-2,3-diamine]
500 to 5000 nM		c1ccc(-c2ccnc(Nc3nnc(-c4ccccn4)s3)c2)cc1 [Compound 240, N-(4-pheny-lpyridin-2-yl)-5-(pyridin-2-yl)-1,3,4-thiadiazol-2-amine]
	< 200 nM	CN1CCC(Oc2ccc(-c3nsc(Nc4ncccc4F)n3)nc2)CC1 [Compound 30, N-(3-fluoro-pyridin-2-yl)-3-(5-(1-methyl-piperidin-4-yloxy)pyridin-2-yl)-1,2,4-thiadiazol-5-amine]
	200 to 500 nM	CC(C)Oc1ccc(-c2nnc(Nc3cc(C(F)(F)F)c(C(C)C)cn3)o2)nc1 [Compound 154, 5-(5-isoprop-oxypyridin-2-yl)-N-(5-isopropyl-4-(trifluoro-methyl)pyridin-2-yl)-1,3,4-oxadiazol-2-amine]
	500 to 5000 nM	COc1cnc(-c2nsc(Nc3ncccc3C)n2)cn1 [Compound 125, 3-(5-methoxy-pyrazin-2-yl)-N-(3-methyl-pyridin-2-yl)-1,2,4-thiadiazol-5-amine]
500 to 5000 nM		CC(C)Oc1ccnc(-c2nnc(Nc3ccc(C(C)C)cn3)s2)c1 [Compound 232, 5-(4-isopropoxy-pyridin-2-yl)-N-(5-isopropyl-pyridin-2-yl)-1,3,4-thiadiazol-2-amine]
< 200 nM		CC(=O)N(C)c1cc(C(F)(F)F)cnc1Nc1nc(-c2cc3c(cn2)CCN3C(C)C)ns1 [Compound 304, N-(2-(3-(1-isopropyl-2,3-dihydro-1H-pyrrolo[3,2-c]pyridin-6-yl)-1,2,4-thiadiazol-5-ylamino)-5-(trifluoromethyl)pyridin-3-yl)-N-methylacetamide]
500 to 5000 nM		Cc1cccnc1Nc1nc(-c2ncc(OC(C)C)cn2)ns1 [Compound 315, 3-(5-isopropoxy-pyrimidin-2-yl)-N-(3-methylpyridin-2-yl)-1,2,4-thiadiazol-5-amine]
	500 to 5000 nM	COc1cnc(-c2nnc(Nc3ncccc3N(C)C)o2)cn1 [Compound 158, N2-(5-(5-methoxy-pyrazin-2-yl)-1,3,4-oxadiazol-2-yl)-N3,N3-dimethyl-pyridine-2,3-diamine]
500 to 5000 nM		COc1ccc(Nc2nnc(-c3cc(OC(C)C)ccn3)o2)nc1 [Compound 212, 5-(4-isoprop-oxypyridin-2-yl)-N-(5-methoxy-pyridin-2-yl)-1,3,4-oxadiazol-2-amine]
500 to 5000 nM		CC(=O)N(C)c1cnc(-c2nsc(Nc3ncccc3C)n2)cc1C [Compound 270, N-methyl-N-(4-methyl-6-(5-(3-methylpyridin-2-ylamino)-1,2,4-thiadiazol-3-yl)pyridin-3-yl)acetamide]

SMILES	IC50 [1]	IC50 [2]
COc1cnc(Nc2nc(-c3cc(C(=O)N(C)C)c(OC(C)C)cn3)ns2)c(C(F)(F)F)c1 [Compound 264, 5-isopropoxy-2-(5-(5-methoxy-3-(trifluoro-methyl)pyridin-2-ylamino)-1,2,4-thiadiazol-3-yl)-N,N-dimethyliso-nicotinamide]	500 to 5000 nM	
CC(C)Oc1cnc(-c2nsc(Nc3ncc(C(C)C)cc3C(F)(F)F)n2)cc1C(=O)N(C)C [Compound 219, 5-isopropoxy-2-(5-(5-isopropyl-3-(trifluoromethyl)pyridin-2-ylamino)-1,2,4-thiadiazol-3-yl)-N,N-dimethyliso-nicotinamide]	200 to 500 nM	
CC(C)Oc1ccc(-c2nsc(Nc3ncccc3N3CCCC3)n2)nc1 [Compound 116, 3-(5-isopropoxy-pyridin-2-yl)-N-(3-(pyrrolidin-1-yl)pyridin-2-yl)-1,2,4-thiadiazol-5-amine]		< 200 nM
COC(=O)c1cc(-c2nsc(Nc3ncccc3C(C)C)n2)ncc1OC(C)C [Compound 197, methyl 5-isopropoxy-2-(5-(3-isopropylpyridin-2-ylamino)-1,2,4-thiadiazol-3-yl)isonicotinate]		< 200 nM
CC(=O)N(C)c1cccnc1Nc1nc(-c2cc(C(C)C)ccn2)ns1 [Compound 216, N-(2-(3-(4-iso-propylpyridin-2-yl)-1,2,4-thiadiazol-5-ylamino)pyridin-3-yl)-N-methyl-acetamide]	200 to 500 nM	
CC(C)Oc1ccc(-c2nsc(Nc3ncccc3C(=O)N(C)C3CC(F)(F)C3)n2)nc1 [Compound 191, N-(3,3-difluoro-cyclobutyl)-2-(3-(5-isoprop-oxypyridin-2-yl)-1,2,4-thiadiazol-5-ylamino)-N-methyl-nicotinamide]		200 to 500 nM
COc1cccnc1Nc1nc(-c2ccc(OC3CC(F)(F)C3)cn2)ns1 [Compound 137, 3-(5-(3,3-difluorocyclo-butoxy)pyridin-2-yl)-N-(3-methoxypyridin-2-yl)-1,2,4-thiadiazol-5-amine]		500 to 5000 nM
CN(C)c1cccnc1Nc1nc(-c2ccc(OC3CC(F)(F)C3)cn2)ns1 [Compound 136, N2-(3-(5-(3,3-difluorocyclo-butoxy)pyridin-2-yl)-1,2,4-thiadiazol-5-yl)-N3,N3-dimethyl-pyridine-2,3-diamine]		500 to 5000 nM
CC(C)Oc1cnc(-c2nsc(Nc3ncccc3C(=O)N3CCCC3)n2)cc1C(F)(F)F [Compound 251, (2-(3-(5-isopropoxy-4-(trifluoromethyl)pyridin-2-yl)-1,2,4-thiadiazol-5-ylamino)pyridin-3-yl) (pyrrolidin-1-yl)methanone]	500 to 5000 nM	
CC(=O)N(C)c1cccnc1Nc1nc(-c2cc3c(cn2)N(C(C)C)CC3)ns1 [Compound 206, N-(2-(3-(1-isopropyl-2,3-dihydro-1H-pyrrolo[2,3-c]pyridin-5-yl)-1,2,4-thiadiazol-5-ylamino)pyridin-3-yl)-N-methylacetamide]	500 to 5000 nM	
CC(C)Oc1ccc(-c2nsc(Nc3ncccc3C(F)(F)F)n2)nc1 [Compound 54, 3-(5-isopropoxy-pyridin-2-yl)-N-(3-(trifluoromethyl)pyridin-2-yl)-1,2,4-thiadiazol-5-amine]		< 200 nM
COc1ccc(Nc2nc(-c3cc(OC4CCCCC4)ccn3)ns2)nc1 [Compound 183, 3-(4-(cyclo-hexyloxy)pyridin-2-yl)-N-(5-methoxypyridin-2-yl)-1,2,4-thiadiazol-5-amine]		200 to 500 nM
Cc1cnc(Nc2nc(-c3cc(OC4COC4)ccn3)ns2)c(C(F)(F)F)c1 [Compound 275, N-(5-methyl-3-(trifluoromethyl)pyridin-2-yl)-3-(4-(oxetan-3-yloxy)pyridin-2-yl)-1,2,4-thiadiazol-5-amine]	500 to 5000 nM	
